Publication PMC10477861, “Efficient Mining of Anticancer Peptides from Gut Metagenome” (Advanced Science, 2023)
Where no end group is shown, it is not given here.

What was measured:
HT29 = test: MTT primary screening of anticancer activity, HT29; format: cell-based, Human; details: 25 µM pACP, 24 h, maintenance medium 1% FBS, ratio of viability to vehicle (PBS), at least three technical repetitions
How it was run: (§1)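 Single-concentration screen: cells at 60% confluence given peptide at 25 µM for 24 h in maintenance medium with 1% FBS. Viability by MTT kit; peptides with minimum effective inhibition concentration >25 µM deemed non-ACPs.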

Hela = test: MTT primary screening of anticancer activity, Hela; format: cell-based, Human; details: 25 µM pACP, 24 h, maintenance medium 1% FBS, ratio of viability to vehicle (PBS), at least three technical repetitions
How it was run: as §1

T47D = test: MTT primary screening of anticancer activity, T47D; format: cell-based; details: 25 µM pACP, 24 h, maintenance medium 1% FBS, ratio of viability to vehicle (PBS), at least three technical repetitions
How it was run: as §1

CT26 = test: MTT concentration gradient and CC50 against CT26; format: cell-based, Murine; details: CT26 cells, calculated with aatbio IC50 calculator from the concentration gradient
Protocol: To evaluate the translational relevance of our methodology, we selected these two pACPs for in vivo studies. […] Subcutaneous tumors were established using CT26 cells in athymic nude mice, and the animals were randomized to receive two intratumoral injections of 0.80 mg kg^−1 pACP2283, 0.51 mg kg^−1 pACP1780, or PBS control on day 0 and day 2. The dosage of pACPs was calculated as five times the CC50 of each compound in CT26 cells. Tumor size was monitored daily for six days (Figure 3c).
To evaluate the activity of the 40 potentially effective pACPs, a panel of 16 cancer cell lines was treated, including human CRC cell lines (HT29, Caco‐2, HCT116). Details of the cell lines used, respective media, and culture conditions were presented in Table S1 (Supporting Information). Once the cells reached 60% confluence, it was incubated with each candidate peptide at a concentration of 25 µM pACPs for 24 h. Concurrently, the complete medium was replaced with a maintenance medium containing only 1% FBS. Subsequently, the viability of each cell line using the MTT Cell Proliferation and Cytotoxicity Assay Kit according to the manufacturer's instructions was assessed. […] For the CRC cell line CT26, it was calculated the CC50 value using two peptides (pACP1780 and pACP2283) with relevant data presented in Table S6 (Supporting Information). […]

HCT116 = test: MTT primary screening of anticancer activity, HCT116; format: cell-based, Human; details: 25 µM pACP, 24 h, maintenance medium 1% FBS, ratio of viability to vehicle (PBS), at least three technical repetitions
How it was run: as §1

HEK293 cells = test: Toxicity to HEK293 cells (MTT); format: cell-based; details: 1.5-100 µM pACP, 24 h, maintenance medium 1% FBS
Protocol: Furthermore, we investigated the safety of pACP2283 and pACP1780 both in vivo and in vitro. […] Additionally, we conducted an acute toxicity experiment in tumor‐free mice by administering pACPs with increasing concentrations into the abdomen. […] This temporary decrease in body weight growth rate may be attributed to the high concentrations of pACPs, which temporarily disturbed the mice's homeostasis.
To assess the toxicity of pACP1780 and pACP2283 at the cellular level, HEK293 cells were grown to 60% confluence in complete medium (10% FBS) for 24 h, and then treated with increasing concentrations (1.5, 3, 6, 12.5, 25, 50, and 100 µM) of each pACPs in maintenance medium (1% FBS) for 24 h. The viability of HEK293 cells was determined using the MTT Cell Proliferation and Cytotoxicity Assay Kit following the manufacturer's instructions. For acute toxicity in tumor‐free mice, the pACPs were injected into the abdomen at increasing concentrations of 2, 10, and 50 mg kg^−1 of mouse weight over three days, and the body weights were recorded throughout the process.

MDA-MB-468 = test: MTT primary screening of anticancer activity, MDA-MB-468; format: cell-based; details: 25 µM pACP, 24 h, maintenance medium 1% FBS, ratio of viability to vehicle (PBS), at least three technical repetitions
How it was run: as §1

MDA-MB-436 = test: MTT primary screening of anticancer activity, MDA-MB-436; format: cell-based; details: 25 µM pACP, 24 h, maintenance medium 1% FBS, ratio of viability to vehicle (PBS), at least three technical repetitions
How it was run: as §1

MDA-MB-453 = test: MTT primary screening of anticancer activity, MDA-MB-453; format: cell-based; details: 25 µM pACP, 24 h, maintenance medium 1% FBS, ratio of viability to vehicle (PBS), at least three technical repetitions
How it was run: as §1

Caco2 = test: MTT primary screening of anticancer activity, Caco2; format: cell-based, Human; details: 25 µM pACP, 24 h, maintenance medium 1% FBS, ratio of viability to vehicle (PBS), at least three technical repetitions
How it was run: as §1

LCC = test: MTT primary screening of anticancer activity, LCC; format: cell-based; details: 25 µM pACP, 24 h, maintenance medium 1% FBS, ratio of viability to vehicle (PBS), at least three technical repetitions
How it was run: as §1

B16 = test: MTT primary screening of anticancer activity, B16; format: cell-based, Mouse; details: 25 µM pACP, 24 h, maintenance medium 1% FBS, ratio of viability to vehicle (PBS), at least three technical repetitions
How it was run: as §1

BT474 = test: MTT primary screening of anticancer activity, BT474; format: cell-based; details: 25 µM pACP, 24 h, maintenance medium 1% FBS, ratio of viability to vehicle (PBS), at least three technical repetitions
How it was run: as §1

CT26 cells = test: Transmission electron microscopy of treated CT26 cells; format: cell-based, Murine; details: 10× CC50, two hours, triplicate
Protocol: To explore the anticancer effects of pACP2283 and pACP1780 at the cellular level, we co‐cultured confluent CT26 cells with these pACPs.
Experiments were performed in triplicate with similar results, and a representative figure is shown. c) CD results for the two selected ACPs and the corresponding proportions of secondary structures calculated from CD data using CDNN. Purple represents the water phase, blue represents the represents the peptide mixed with a 20‐fold POPC lipid mixture, and grey represents the peptide mixed with a 20‐fold POPC+POPS lipid mixture.
First, CT26 cancer cells were treated with peptides pACP1780 and pACP2283 for two hours. The digested CT26 cancer cells were then resuspended in double‐strength fixative, which consisted of 2% (w/v) paraformaldehyde and 2.5% (v/v) glutaraldehyde in 10 mM HEPES buffer (pH 7.0). Subsequently, the cells were incubated for 2 h at room temperature on a roller and stored at 4°C. Afterward, the fixed cells were pre‐embedded with agar, subjected to four washes with 5 mM HEPES buffer (pH 7.0) (5 min per wash), and post‐fixed with 1% osmium tetroxide (OsO4) for 30 min. Following post‐fixation, the specimens were rinsed twice with water and dehydrated using an acetone series (5 min each; 30%, 50%, 70%, 85%, 90%, 3×5 min 100%). […]

SK-BR-3 = test: MTT primary screening of anticancer activity, SK-BR-3; format: cell-based; details: 25 µM pACP, 24 h, maintenance medium 1% FBS, ratio of viability to vehicle (PBS), at least three technical repetitions
How it was run: as §1

Row | Sequence | Survival rate of cancer cells in primary screening (HT29) | Survival rate of cancer cells in primary screening (Hela) | Survival rate of cancer cells in primary screening (T47D) | CC50 (CT26) [µM] | Survival rate of cancer cells in primary screening (HCT116) | toxicity to HEK293 cells (HEK293 cells) | Survival rate of cancer cells in primary screening (MDA-MB-468) | Survival rate of cancer cells in primary screening (MDA-MB-436) | Survival rate of cancer cells in primary screening (MDA-MB-453) | Survival rate of cancer cells in primary screening (Caco2) | Survival rate of cancer cells in primary screening (LCC) | Survival rate of cancer cells in primary screening (B16) | Survival rate of cancer cells in primary screening (BT474) | cell membranes by transmission electron microscopy (CT26 cells) | Survival rate of cancer cells in primary screening (SK-BR-3)
1 | RRFAWIGKLQSRKVRNNIRQYRTKIVRQMRRQIFRQMKQKAE [pACP1780] | 0.33 | 0.00724 | 0.0167 | 6.23 | 0.29 | no toxicity to HEK293 cells | 0.19 | 0.00535 | 0.085 | 0.74 | 0.47 | 0.41 | 0.03 | disintegrated cell membranes | 0.03
2 | WWRRAERSVRRFFGTPIGPFPEIFGRRKAHKKKIIAKFDSVNG [pACP2283] | 0.51 | 0.00225 | 0.0119 | 10.56 | 0.0645 | no toxicity to HEK293 cells | 0.09 | 0.00645 | 0.03 | 1.00 | 0.49 | 0.28 | 0.02 | disintegrated cell membranes | 0.0341
